Assay results from patent US11878980B2, “Solid forms of TTK inhibitor” (UNIVERSITY HEALTH NETWORK, priority 2016, dated 2024).
Where a name gives a salt, the structure may show the parent alone.

Legend:
[1] = Solubility (Solubilitymax, pHmax) of crystalline forms; assay type: physicochemical
[2] = Hygroscopicity (water sorption at 90% RH); assay type: physicochemical
[3] = Pharmacokinetic analysis after single oral powder-in-capsule dose, rat plasma by LC/MS; assay type: in vivo, Sprague-Dawley rats; conditions: for AUC0-last / Cmax: Rat, PO, 5 mg/kg; for plasma concentrations relative to free base compound (I) (in words): Sprague Dawley rats, oral
Description: (§1) A single oral, powder-in-capsule dose of each form was administered to three (n=3) female Sprague-Dawley rats and three male beagle dogs (n=3) at 5 mg active pharmaceutical ingredient per kg body weight. The plasma was then analyzed for compound plasma levels by LC/MS.
(§2) Compound was milled using a mortar and pestle and was carefully dispensed into a gelatin capsule, tared on an analytical balance. Loading continued until the desired compound mass was achieved. Size 9 capsules were used for rat dosing and size 3 capsules were used for dogs. Note: compound load was corrected for the bioequivalence ratio of each form.
(§3) Following oral dosing, blood was drawn from the lateral saphenous vein into lithium heparin coated tubes (rats) or K2EDTA coated tubes (dogs), at designated time points. Plasma was collected and stored frozen at −80° C. until analysis.
Plasma samples (20 μL) and spiked plasma standard samples were diluted five-fold with ice cold acetonitrile containing 100 ng/mL verapamil as internal standard. Samples and standards were filtered through 0.22 μm membranes in a 96-well format. Filtrates were then diluted with water to 30% acetonitrile.
10 μL of each sample and standard was injected onto a Waters Acquity CSH 1.7 μm 2.1×100 mm column at 0.6 mL/min by an Acquity UPLC. The C18 column was equilibrated at 5% acetonitrile in water. Compounds were eluted with a gradient to 99% acetonitrile. All mobile phases contained 0.1% (v/v) formic acid.
Column eluent was analyzed by an electrospray ionization tandem quadrupole mass spectrometry system (ESI-MS/MS, a Waters Xevo TQ). Eluent composition was analyzed for three ion-pairs specific for the internal standard and three ion-pairs specific for the analyte. Experimental samples were compared with standard curve samples to determine compound concentrations. Pharmacokinetic parameters were determined using the Excel plug-in “PKfit”.

[4] = Pharmacokinetic analysis after single oral powder-in-capsule dose, dog plasma by LC/MS; assay type: in vivo, beagle dogs; conditions: for AUC0-last / Cmax: Dog, PO, 5 mg/kg; for plasma concentrations relative to free base compound (I) (in words): beagle dogs, oral
Description: as §1, §2, §3
Plasma samples (20 μL) and spiked plasma standard samples were diluted eleven fold with ice cold acetonitrile containing 40 ng/mL Diclofenac as internal standard. The mixture was vortexed for 2 min and centrifuged. The 0.5 μL supernatant was injected into a Waters Acquity BEH 1.7 μm 2.1×50 mm column at 0.6 mL/min by an Acquity UPLC. The column was equilibrated with 10% methanol in water. Compounds were eluted with a gradient to 95% methanol. Mobile phases contained 0.025% (v/v) formic acid and 1 mM NH4OAc.
Column eluent was analyzed by an electrospray ionization tandem quadrupole mass spectrometry system (ESI-MS/MS, an API-6500). Eluent composition was analyzed for one ion-pairs specific for the internal standard and one ion-pairs specific for the analyte. Experimental samples were compared with standard curve samples to determine compound concentrations. Pharmacokinetic parameters were determined using WinNonlin Professional 6.2.

Cc1cc(-c2cnn3c(NC[C@H]4C[C@@](C)(O)C4)cc(Oc4cccnc4)nc23)ccc1C(=O)NC1CC1 [Compound (I) bisphosphate hemihydrate]
Solubilitymax [1]: 100 µg/mL
pHmax [1]: <1.14
Hygroscopicity (water sorption at 90% RH) [2]: 3.9%
AUC0-last [3]: 2100 ng·h/mL
Cmax [3]: 1120 ng/mL
plasma concentrations relative to free base compound (I) (in words) [3]: increased plasma concentrations
AUC0-last [4]: 4000 ng·h/mL
Cmax [4]: 830 ng/mL
plasma concentrations relative to free base compound (I) (in words) [4]: increased plasma concentrations

Cc1cc(-c2cnn3c(NC[C@H]4C[C@@](C)(O)C4)cc(Oc4cccnc4)nc23)ccc1C(=O)NC1CC1 [Compound (I) hydrobromide]
Solubilitymax [1]: 630 µg/mL
pHmax [1]: 0.79
Hygroscopicity (water sorption at 90% RH) [2]: 2.3%
AUC0-last [3]: 1640 ng·h/mL
Cmax [3]: 260 ng/mL
plasma concentrations relative to free base compound (I) (in words) [3]: increased plasma concentrations
AUC0-last [4]: 2760 ng·h/mL
Cmax [4]: 570 ng/mL
plasma concentrations relative to free base compound (I) (in words) [4]: increased plasma concentrations

Cc1cc(-c2cnn3c(NC[C@H]4C[C@@](C)(O)C4)cc(Oc4cccnc4)nc23)ccc1C(=O)NC1CC1 [Compound (I), N-cyclopropyl-4-(7-((((1s,3s)-3-hydroxy-3-methylcyclobutyl)methyl)amino)-5-(pyridin-3-yloxy)pyrazolo[1,5-a]pyrimidin-3-yl)-2-methylbenzamide]
Solubilitymax [1]: <1 µg/mL
Hygroscopicity (water sorption at 90% RH) [2]: 0.8%
AUC0-last [3]: 140 ng·h/mL
Cmax [3]: 11 ng/mL
AUC0-last [4]: 40 ng·h/mL
Cmax [4]: 8 ng/mL

Cc1cc(-c2cnn3c(NC[C@H]4C[C@@](C)(O)C4)cc(Oc4cccnc4)nc23)ccc1C(=O)NC1CC1 [Compound I-monohydrate]
Solubilitymax [1]: <1 µg/mL
